Assay results reported in PMC12748989 (Nature Communications, 2025).

Assays:
PBMC = settings: 12.5 µM

Structure (SMILES)	Average (percentage cell inhibition), Dmastoparan MDA-MB231 12.5uM (MDA-MB-231 cells) [%]	Average (percentage cell inhibition), Mastoparan PBMC (PBMC) [%]
CC[C@H](C)[C@H](N)C(=O)N[C@@H](CC(N)=O)C(=O)N[C@@H](CC(C)C)C(=O)N[C@@H](CCC(N)=O)C(=O)N[C@@H](C)C(=O)N[C@@H](CC(C)C)C(=O)N[C@@H](C)C(=O)N[C@@H](C)C(=O)N[C@@H](CC(C)C)C(=O)N[C@@H](C)C(=O)N[C@@H](CCCCN)C(=O)N[C@@H](CCCCN)C(=O)N[C@H](C(=O)N[C@@H](CC(C)C)C(N)=O)[C@@H](C)CC [Q4]	34.9808	-3.9555
CC[C@H](C)[C@H](N)C(=O)N[C@@H](CC(N)=O)C(=O)N[C@@H](CC(C)C)C(=O)N[C@@H](CCCCN)C(=O)N[C@@H](C)C(=O)N[C@@H](CC(C)C)C(=O)N[C@H](C(=O)N[C@@H](C)C(=O)N[C@@H](CC(C)C)C(=O)N[C@@H](C)C(=O)N[C@@H](CCCCN)C(=O)N[C@@H](CCCCN)C(=O)N[C@H](C(=O)N[C@@H](CC(C)C)C(N)=O)[C@@H](C)CC)C(C)C [V7]	57.1739	22.1422
CC[C@H](C)[C@H](N)C(=O)N[C@H](C(=O)N[C@@H](CC(C)C)C(=O)N[C@@H](CCCCN)C(=O)N[C@@H](C)C(=O)N[C@@H](CC(C)C)C(=O)N[C@@H](C)C(=O)N[C@@H](C)C(=O)N[C@@H](CC(C)C)C(=O)N[C@@H](C)C(=O)N[C@@H](CCCCN)C(=O)N[C@@H](CCCCN)C(=O)N[C@H](C(=O)N[C@@H](CC(C)C)C(N)=O)[C@@H](C)CC)[C@@H](C)CC [I2]	82.9517	42.1735
CC[C@H](C)[C@H](N)C(=O)N[C@@H](CC(N)=O)C(=O)N[C@@H](CC(C)C)C(=O)N[C@@H](CCCCN)C(=O)N[C@@H](C)C(=O)N[C@@H](CC(C)C)C(=O)N[C@@H](C)C(=O)N[C@@H](C)C(=O)N[C@@H](CC(C)C)C(=O)N[C@@H](C)C(=O)N[C@@H](CCCCN)C(=O)N[C@@H](CCCCN)C(=O)N[C@@H](CCC(N)=O)C(=O)N[C@@H](CC(C)C)C(N)=O [Q13]	9.2166	-1.132
CC[C@H](C)[C@H](N)C(=O)N[C@@H](CC(N)=O)C(=O)N[C@@H](CC(C)C)C(=O)N[C@@H](CCCCN)C(=O)N[C@@H](C)C(=O)N[C@@H](CC(C)C)C(=O)N[C@@H](C)C(=O)N[C@@H](CCC(=O)O)C(=O)N[C@@H](CC(C)C)C(=O)N[C@@H](C)C(=O)N[C@@H](CCCCN)C(=O)N[C@@H](CCCCN)C(=O)N[C@H](C(=O)N[C@@H](CC(C)C)C(N)=O)[C@@H](C)CC [E8]	39.5903	13.1597
CC[C@H](C)[C@H](NC(=O)[C@H](CCCCN)NC(=O)[C@H](CCCCN)NC(=O)[C@H](C)NC(=O)[C@H](CC(C)C)NC(=O)[C@H](C)NC(=O)[C@H](C)NC(=O)[C@H](CC(C)C)NC(=O)[C@H](C)NC(=O)[C@H](CCCCN)NC(=O)[C@H](CC(C)C)NC(=O)[C@H](CC(N)=O)NC(=O)[C@@H](N)CCC(=O)O)C(=O)N[C@@H](CC(C)C)C(N)=O [E1]	25.5598	8.369
CC[C@H](C)[C@H](N)C(=O)N[C@@H](CC(N)=O)C(=O)N[C@@H](CC(C)C)C(=O)N[C@@H](CCCCN)C(=O)N[C@@H](CCC(N)=O)C(=O)N[C@@H](CC(C)C)C(=O)N[C@@H](C)C(=O)N[C@@H](C)C(=O)N[C@@H](CC(C)C)C(=O)N[C@@H](C)C(=O)N[C@@H](CCCCN)C(=O)N[C@@H](CCCCN)C(=O)N[C@H](C(=O)N[C@@H](CC(C)C)C(N)=O)[C@@H](C)CC [Q5]	41.3502	0.7115
CC[C@H](C)[C@H](N)C(=O)N[C@@H](CC(N)=O)C(=O)N[C@@H](CC(C)C)C(=O)N[C@@H](CCCCN)C(=O)N[C@@H](C)C(=O)N[C@@H](CC(C)C)C(=O)N[C@@H](C)C(=O)N[C@@H](C)C(=O)N[C@@H](CC(C)C)C(=O)N[C@@H](C)C(=O)N[C@@H](CCCCN)C(=O)N[C@@H](Cc1ccc(O)cc1)C(=O)N[C@H](C(=O)N[C@@H](CC(C)C)C(N)=O)[C@@H](C)CC [Y12]	47.3973	22.3509
CC[C@H](C)[C@H](NC(=O)[C@H](CCCCN)NC(=O)[C@H](CCCCN)NC(=O)[C@H](C)NC(=O)[C@H](CC(C)C)NC(=O)[C@H](C)NC(=O)[C@H](C)NC(=O)[C@H](CC(C)C)NC(=O)[C@H](C)NC(=O)[C@H](CCCCN)NC(=O)[C@H](CC(C)C)NC(=O)[C@H](CC(N)=O)NC(=O)[C@@H]1CCCN1)C(=O)N[C@@H](CC(C)C)C(N)=O [P1]	43.0723	-0.6303
CC[C@H](C)[C@H](NC(=O)[C@H](CCCCN)NC(=O)[C@H](CCCCN)NC(=O)[C@H](C)NC(=O)[C@H](CC(C)C)NC(=O)[C@H](C)NC(=O)[C@H](C)NC(=O)[C@H](CC(C)C)NC(=O)[C@H](C)NC(=O)[C@H](CCCCN)NC(=O)[C@H](CC(C)C)NC(=O)[C@H](CC(N)=O)NC(=O)[C@@H](N)Cc1c[nH]c2ccccc12)C(=O)N[C@@H](CC(C)C)C(N)=O [W1]	42.4034	19.8521
CC[C@H](C)[C@H](N)C(=O)N[C@@H](CC(N)=O)C(=O)N[C@@H](CC(C)C)C(=O)N[C@@H](CCCCN)C(=O)N[C@@H](C)C(=O)N[C@@H](CC(C)C)C(=O)N[C@@H](C)C(=O)N[C@@H](C)C(=O)N[C@@H](CC(C)C)C(=O)N[C@@H](CCCNC(=N)N)C(=O)N[C@@H](CCCCN)C(=O)N[C@@H](CCCCN)C(=O)N[C@H](C(=O)N[C@@H](CC(C)C)C(N)=O)[C@@H](C)CC [R10]	11.5132	5.821
CC[C@H](C)[C@H](N)C(=O)N[C@@H](CC(N)=O)C(=O)N[C@@H](CC(C)C)C(=O)N[C@@H](CCCCN)C(=O)N[C@@H](C)C(=O)N[C@@H](CC(C)C)C(=O)N[C@@H](C)C(=O)N[C@@H](C)C(=O)N[C@H](C(=O)N[C@@H](C)C(=O)N[C@@H](CCCCN)C(=O)N[C@@H](CCCCN)C(=O)N[C@H](C(=O)N[C@@H](CC(C)C)C(N)=O)[C@@H](C)CC)[C@@H](C)CC [I9]	25.9927	12.8506
CC[C@H](C)[C@H](N)C(=O)N[C@@H](CC(N)=O)C(=O)N[C@@H](CC(C)C)C(=O)N[C@@H](CCCCN)C(=O)N[C@@H](C)C(=O)N[C@@H](CC(C)C)C(=O)N[C@@H](C)C(=O)N[C@@H](C)C(=O)N[C@@H](CC(C)C)C(=O)N[C@@H](CCC(N)=O)C(=O)N[C@@H](CCCCN)C(=O)N[C@@H](CCCCN)C(=O)N[C@H](C(=O)N[C@@H](CC(C)C)C(N)=O)[C@@H](C)CC [Q10]	6.186	12.3938
CC[C@H](C)[C@H](N)C(=O)N[C@@H](CC(N)=O)C(=O)N[C@H](C(=O)N[C@@H](CCCCN)C(=O)N[C@@H](C)C(=O)N[C@@H](CC(C)C)C(=O)N[C@@H](C)C(=O)N[C@@H](C)C(=O)N[C@@H](CC(C)C)C(=O)N[C@@H](C)C(=O)N[C@@H](CCCCN)C(=O)N[C@@H](CCCCN)C(=O)N[C@H](C(=O)N[C@@H](CC(C)C)C(N)=O)[C@@H](C)CC)[C@@H](C)O [T3]	21.7833	8.955
CC[C@H](C)[C@H](N)C(=O)N[C@@H](CC(N)=O)C(=O)N[C@@H](CC(C)C)C(=O)N[C@@H](CCCCN)C(=O)N[C@@H](C)C(=O)N[C@@H](CC(C)C)C(=O)N[C@@H](C)C(=O)N[C@@H](C)C(=O)N[C@@H](CC(C)C)C(=O)N1CCC[C@H]1C(=O)N[C@@H](CCCCN)C(=O)N[C@@H](CCCCN)C(=O)N[C@H](C(=O)N[C@@H](CC(C)C)C(N)=O)[C@@H](C)CC [P10]	28.7019	-7.837
CC[C@H](C)[C@H](N)C(=O)N[C@@H](CC(N)=O)C(=O)N[C@@H](CC(C)C)C(=O)N[C@@H](CCCCN)C(=O)N[C@@H](C)C(=O)N[C@@H](CC(C)C)C(=O)N[C@@H](C)C(=O)N[C@@H](C)C(=O)N[C@@H](CC(C)C)C(=O)N[C@@H](Cc1ccc(O)cc1)C(=O)N[C@@H](CCCCN)C(=O)N[C@@H](CCCCN)C(=O)N[C@H](C(=O)N[C@@H](CC(C)C)C(N)=O)[C@@H](C)CC [Y10]	27.1013	11.2083
CC[C@H](C)[C@H](N)C(=O)N[C@@H](CC(N)=O)C(=O)N[C@@H](CC(C)C)C(=O)N[C@@H](CCCCN)C(=O)N[C@@H](C)C(=O)N[C@@H](CO)C(=O)N[C@@H](C)C(=O)N[C@@H](C)C(=O)N[C@@H](CC(C)C)C(=O)N[C@@H](C)C(=O)N[C@@H](CCCCN)C(=O)N[C@@H](CCCCN)C(=O)N[C@H](C(=O)N[C@@H](CC(C)C)C(N)=O)[C@@H](C)CC [S6]	29.7699	-17.608
CC[C@H](C)[C@H](N)C(=O)N[C@@H](CC(N)=O)C(=O)N[C@@H](CC(C)C)C(=O)N[C@@H](CCCCN)C(=O)N[C@@H](C)C(=O)N[C@@H](CC(C)C)C(=O)N[C@@H](Cc1ccc(O)cc1)C(=O)N[C@@H](C)C(=O)N[C@@H](CC(C)C)C(=O)N[C@@H](C)C(=O)N[C@@H](CCCCN)C(=O)N[C@@H](CCCCN)C(=O)N[C@H](C(=O)N[C@@H](CC(C)C)C(N)=O)[C@@H](C)CC [Y7]	74.0703	16.9599
CC[C@H](C)[C@H](N)C(=O)N[C@@H](CC(N)=O)C(=O)N[C@@H](CC(C)C)C(=O)N[C@@H](CCCCN)C(=O)N[C@@H](CO)C(=O)N[C@@H](CC(C)C)C(=O)N[C@@H](C)C(=O)N[C@@H](C)C(=O)N[C@@H](CC(C)C)C(=O)N[C@@H](C)C(=O)N[C@@H](CCCCN)C(=O)N[C@@H](CCCCN)C(=O)N[C@H](C(=O)N[C@@H](CC(C)C)C(N)=O)[C@@H](C)CC [S5]	26.0666	9.929
